Results from patent US8759504B2, “Cholinergic/serotoninergic receptor and uses thereof” (AbbVie Inc., priority 2007, dated 2014).
Read-outs that look alike come from different tables or passages of the source.

Assays:
[1] = molecular target: T1, wild-type α7 nicotinic acetylcholine receptor (Homo sapiens, UniProt P36544); test: Two electrode voltage clamp in Xenopus oocytes, agonist and modulator responses; assay type: cell-based
T1 construct: expressed in transfected cells; host or cells: Xenopus laevis oocytes
T1 sequence (P36544 23-502): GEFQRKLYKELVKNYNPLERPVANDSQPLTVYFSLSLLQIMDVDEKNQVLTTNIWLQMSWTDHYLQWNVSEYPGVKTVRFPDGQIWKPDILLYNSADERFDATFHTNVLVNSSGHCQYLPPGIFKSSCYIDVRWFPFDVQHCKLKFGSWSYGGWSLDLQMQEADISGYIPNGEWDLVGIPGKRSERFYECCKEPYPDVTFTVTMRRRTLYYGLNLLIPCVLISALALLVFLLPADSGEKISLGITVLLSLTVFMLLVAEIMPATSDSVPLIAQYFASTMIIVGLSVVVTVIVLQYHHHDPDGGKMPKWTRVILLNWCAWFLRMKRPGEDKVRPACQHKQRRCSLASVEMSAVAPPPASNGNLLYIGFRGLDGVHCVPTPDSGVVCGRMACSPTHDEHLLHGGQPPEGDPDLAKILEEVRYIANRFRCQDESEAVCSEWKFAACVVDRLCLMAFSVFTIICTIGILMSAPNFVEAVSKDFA

[2] = molecular target: T2, Chimera 1 (Homo sapiens, UniProt P36544, M226I/T225V); test: Two electrode voltage clamp in Xenopus oocytes (POETs), agonist and modulator responses; assay type: cell-based; parameters: expressed in transfected cells; host or cells: Xenopus laevis oocytes (transient, A1)
T2 sequence (P36544 with tags, fused parts or gaps T225V/M226I): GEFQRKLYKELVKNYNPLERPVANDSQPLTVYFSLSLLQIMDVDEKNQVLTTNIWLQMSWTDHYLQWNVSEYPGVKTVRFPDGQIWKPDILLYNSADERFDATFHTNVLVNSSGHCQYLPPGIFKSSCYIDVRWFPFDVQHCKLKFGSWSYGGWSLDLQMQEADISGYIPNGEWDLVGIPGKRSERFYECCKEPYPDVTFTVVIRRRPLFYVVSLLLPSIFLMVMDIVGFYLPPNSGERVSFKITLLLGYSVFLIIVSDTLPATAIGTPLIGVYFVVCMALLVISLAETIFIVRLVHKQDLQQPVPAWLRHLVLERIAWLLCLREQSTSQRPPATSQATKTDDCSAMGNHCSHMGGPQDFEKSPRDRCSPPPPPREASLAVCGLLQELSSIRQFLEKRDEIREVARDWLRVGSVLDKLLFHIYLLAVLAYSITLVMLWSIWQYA

[3] = molecular target: T3, Chimera 2 (Homo sapiens, UniProt P36544, M226I/T225V); test: as above; assay type: cell-based; parameters: expressed in transfected cells; host or cells: Xenopus laevis oocytes (transient, A2); details: 30 μM IVM
T3 sequence (P36544 with tags, fused parts or gaps T225V/M226I): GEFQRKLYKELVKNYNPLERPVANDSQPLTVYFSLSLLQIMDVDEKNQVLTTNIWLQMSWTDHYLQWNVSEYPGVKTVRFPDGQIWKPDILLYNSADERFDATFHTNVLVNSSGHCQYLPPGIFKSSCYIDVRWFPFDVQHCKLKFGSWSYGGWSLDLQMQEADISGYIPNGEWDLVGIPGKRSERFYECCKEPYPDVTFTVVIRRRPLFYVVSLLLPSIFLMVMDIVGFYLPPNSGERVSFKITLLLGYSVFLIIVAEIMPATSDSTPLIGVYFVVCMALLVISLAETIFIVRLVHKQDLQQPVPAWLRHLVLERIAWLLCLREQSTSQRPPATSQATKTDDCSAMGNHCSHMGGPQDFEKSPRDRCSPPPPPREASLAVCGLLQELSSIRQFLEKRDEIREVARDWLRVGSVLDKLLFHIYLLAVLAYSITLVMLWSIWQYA

[4] = molecular target: T2, Chimera 1; test: Membrane potential imaging (FLIPR-FMP) in HEK-293 cells; assay type: cell-based; parameters: expressed in transfected cells
[5] = molecular target: T3, Chimera 2; test: as above; assay type: cell-based; parameters: expressed in transfected cells
[6] = molecular target: T4, rat brain α7* nicotinic acetylcholine receptors (Rattus norvegicus, UniProt Q05941); test: [3H]A-585539 radioligand binding, rat brain homogenates
T4 construct: expressed both as a native (rat cortex) or α7/5-HT3 chimeric receptor; from tissue; host or cells: rat brain / rat cortex homogenates
T4 sequence (Q05941 23-502): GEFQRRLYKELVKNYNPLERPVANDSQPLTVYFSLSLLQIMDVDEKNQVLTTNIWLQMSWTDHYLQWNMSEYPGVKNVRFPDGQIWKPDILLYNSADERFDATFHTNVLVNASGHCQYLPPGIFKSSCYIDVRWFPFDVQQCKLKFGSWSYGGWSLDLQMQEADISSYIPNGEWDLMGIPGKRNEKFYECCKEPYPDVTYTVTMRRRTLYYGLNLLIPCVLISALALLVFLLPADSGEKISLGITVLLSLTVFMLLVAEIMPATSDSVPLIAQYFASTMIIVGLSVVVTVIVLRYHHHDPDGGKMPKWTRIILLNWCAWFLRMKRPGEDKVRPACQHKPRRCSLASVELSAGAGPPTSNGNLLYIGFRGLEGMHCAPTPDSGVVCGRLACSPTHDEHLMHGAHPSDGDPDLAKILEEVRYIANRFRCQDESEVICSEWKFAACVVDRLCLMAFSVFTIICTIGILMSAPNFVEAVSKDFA

[7] = molecular target: T3, Chimera 2; test: [3H]A-585539 radioligand binding, HEK-293 membranes/homogenates; parameters: expressed in transfected cells; details: increasing concentrations
[8] = HEK293, read-out: Agonist maximum efficacy, control (no modulator)
[9] = HEK293, read-out: Agonist maximum efficacy, in the presence of 10 μM genistein
[10] = HEK293, read-out: Agonist maximum efficacy, in the presence of 1 mM 5-HI
[11] = HEK293, read-out: Maximum efficacy (mean±S.E.M.), membrane potential imaging, HEK-293 cells
[12] = read-out: Agonist concentration-response EC50, control (no modulator)
[13] = read-out: Agonist concentration-response EC50, in the presence of 10 μM genistein
[14] = read-out: Agonist concentration-response EC50, in the presence of 1 mM 5-HI
[15] = read-out: Agonist potency, membrane potential imaging: EC50 (95% C.I.), HEK-293 cells

CC[C@H](C)[C@H]1O[C@]2(CC[C@@H]1C)C[C@@H]1C[C@@H](C/C=C(\C)[C@@H](O[C@H]3C[C@H](OC)[C@@H](O[C@H]4C[C@H](OC)[C@@H](O)[C@H](C)O4)[C@H](C)O3)[C@@H](C)/C=C/C=C3\CO[C@@H]4[C@H](O)C(C)=C[C@@H](C(=O)O1)[C@]34O)O2 [IVM, ivermectin]
ng of ACh curve after modulator ([1]; 30 μM IVM): 1.4 ± 0.16
Effect of modulator on ACh-evoked current (words) ([1]; Xenopus oocytes): substantial increase in the amplitude of the subsequent ACh-evoked current
ng of ACh curve after modulator ([2]; 30 μM IVM): 1.8 ± 0.05
Effect of modulator on ACh-evoked current (words) ([2]; Xenopus oocytes): absence of effects
ng of ACh curve after modulator [3]: 1.1 ± 0.12

O=C(N[C@H]1CN2CCC1CC2)c1ccc(Cl)cc1 [PNU-282987]
Emax [4, 8]: 98 ± 2%
Emax [4, 9]: 87 ± 3%
Emax [4, 10]: 157 ± 13%
Emax [4, 11]: 107 ± 9%
FLIPR-FMP pEC50 ± SEM ([4]; HEK-293 cells): 6.8 ± 0.07
EC50 [4, 12]: 343 nM
EC50 [4, 13]: 527 nM
EC50 [4, 14]: 145 nM
EC50 [4, 15]: 204 nM
Emax [5, 8]: 100 ± 0.01%
Emax [5, 9]: 207 ± 21%
Emax [5, 10]: 156 ± 4%
Emax [5, 11]: 99 ± 2%
FLIPR-FMP pEC50 ± SEM ([5]; HEK-293 cells): 7.0 ± 0.04
EC50 [5, 12]: 75 nM
EC50 [5, 13]: 72 nM
EC50 [5, 14]: 37 nM
EC50 [5, 15]: 53 nM

CCN1C[C@]2(COC(=O)c3ccccc3N3C(=O)C[C@H](C)C3=O)CC[C@H](OC)[C@@]34[C@@H]5C[C@H]6[C@H](OC)[C@@H]5[C@](O)(C[C@@H]6OC)[C@@](O)([C@@H](OC)[C@H]23)[C@@H]14 [methyllycaconitine]
Competition / displacement of [3H]A-585539 binding [6]: competed with the binding
Competition / displacement of [3H]A-585539 binding [7]: competed with the binding

c1ccc(-c2nnc(N3CCN4CCC3CC4)o2)cc1 [NS6784, 2-(1,4-diazabicyclo[3.2.2]nonan-4-yl)-5-phenyl-1,3,4-oxadiazole]
Emax [4, 11]: 100%
FLIPR-FMP pEC50 ± SEM ([4]; HEK-293 cells): 6.8 ± 0.10
EC50 [4, 15]: 133 nM
Emax [5, 11]: 107 ± 5%
FLIPR-FMP pEC50 ± SEM ([5]; HEK-293 cells): 7.1 ± 0.04
EC50 [5, 15]: 72 nM
